According to publication PMC8851282, “Senolysis induced by 25-hydroxycholesterol targets CRYAB in multiple cell types” (iScience, 2022):

Columns and labels:
[1] = tested on: human skeletal muscle myoblasts (HSMMs); assay: Cell viability assay (cell counting kit-8) of senescent and non-senescent HSMMs treated with inhibitors; assay type: cell-based; details: for viability of senescent versus non-senescent HSMMs: Doxo-induced senescence, viability on day 3; for IC50: Homo sapiens, Myoblast, HSMM
Method: (§1) Figure 3 25HC is a senolytic in multiple muscle cell types (A) Targets, compounds, and mechanisms. (B) Timeline of cell viability assay with inhibitors. Cells were pre-cultured for 24 h, treated with Doxo for 24 h, and then treated with inhibitors. Cell viability was analyzed from day 0–7. (C–E) Effects of inhibitors on viability of FAPs, SCs, and HSMMs. Cells were treated with inhibitors at the indicated concentrations. Cell viability was analyzed on day 3 (HSMMs) or 5 (FAPs and SCs). Blue and red dots indicate non-senescent (NS) and senescent (SEN), respectively. The average value at 0 μM for each group was set at 100% cell viability. p values versus NS were obtained using unpaired two-tailed Student’s t test. ∗p < 0.05, ∗∗p < 0.01, and ∗∗∗p < 0.001.
(§2) All experiments were performed in incubators at 37 °C, 3% O2 and 5% CO2. Senescence was induced by treatment with either Doxo (250 nM for 24 h) ([Demaria et al., 2017]) or X-irradiation (10 Gy) ([Limbad et al., 2020]). For cell culture studies using 25HC, it was used at the indicated concentrations in the media.
(§3) FAPs and SCs were cultured on Matrigel-coated dishes (BD Biosciences) in growth medium (GM) consisting of DMEM plus 10% FBS, 1% penicillin-streptomycin and 10% MyoCult (STEMCELL Technologies) for 7 days. Human myogenic cell HSMMs (Lonza) were maintained according to the manufacturer’s instructions with SkGM-2 medium (Lonza).
(§4) Cell viability was assessed using a cell counting kit-8 from Dojindo Molecular Technologies, Inc (Cat CK04-20). Cells were incubated with culture media + 10% kit cell viability reagent, 150 μL/well in 96-well plates for 2 h. The supernatant was transferred to a new 96-well plate and absorbance read at 450 nm as recommended in the product datasheet.

[2] = tested on: mouse dermal fibroblasts (mDFs); assay: Cell viability assay of NS and SEN mouse dermal fibroblasts treated with CRYAB and HMOX1 inhibitors; assay type: cell-based; details: 250 nM Doxo-induced senescence; after 72 h of treatment; 25HC at five or 10 μM
Method: The average value of DMSO was set at 1. (B and D) Effects of CRYAB and HMOX1 inhibitors on DMSO-treated NS or Doxo-treated SEN cells; (B) mDFs, (D) IMR-90s. Cells were treated with the inhibitors at the indicated concentrations. Cell viability was measured after 72 h. (C) IMR-90 qRT-PCR. For qPCR: mean +/- SE, n =4, ∗p< 0.05, ∗∗p< 0.01, ∗∗∗p<0.001, ∗∗∗∗p<0.0001 by Dunnett’s multiple comparisons test vs DMSO. For cell viability assays: mean +/- SE, n =3, ∗∗p< 0.01, ∗∗∗p<0.001, ∗∗∗∗p<0.0001 vs 0 mM by student’s t test.
For skin sample collection, mice were euthanized, hair removed from dorsal skin and the area cleaned with alcohol. A small 1 cm x 1 cm region of skin was removed, and subcutaneous fat removed by scalpel. Skin was digested in 2–3 ml of 0.25% trypsin at 37 °C for 1 h. Hair and epidermis were further removed, and the dermis was minced into 2–3 mm pieces. Digestion of the sample in 5 ml of 1 mg/ml collagenase (Sigma, Cat#C5138) in HBSS (with Ca^++ and Mg^++) (Gibco, cat#24020117) was carried out at 37 °C on a shaker for 1 h. Collagenase digestion was stopped by addition of 10 ml 10% FBS DMEM. Filtration of the homogenate through a 70-micron mesh was performed to remove undigested tissue. Differential centrifugation and washing were performed at 1200 rpm for 5 min, and the pellet was resuspended in 10% FBS DMEM then seeded in a six-well plate. Media were changed at 5 days after seeding and then every 3 days.
as §2, §4

FAPs [3] = assay: Cell viability assay (cell counting kit-8) of senescent and non-senescent FAPs treated with inhibitors; assay type: cell-based, mouse; details: for viability of senescent versus non-senescent FAPs: Doxo-induced senescence, viability on day 5, 25HC at concentrations between 0.1 and 1 μM; for IC50: FAPs
Method: as §1
(§5) Figure 4 EC50 fitted curves (triplicates) of inhibitor effects at 3 and 7 days in FAPS and SCs EC50 was defined as the concentration of inhibitors that provokes a response halfway between baseline and maximum senolytic activity. EC50 values were determined by four- parameter logistic modeling using GraphPad Prism 8.0.
(§6) Hind limb muscles were digested in DMEM containing 0.5% (w/v) collagenase type II (Worthington) for 90 min at 37 °C with trituration and passed through a 40-μm nylon mesh. Erythrocytes were eliminated by treating with BD Pharm Lyse (BD Biosciences). Cells were resuspended in a washing buffer of PBS with 2% FBS and stained with antibodies for 30 min at 4 °C as described ([Kamizaki et al., 2017]). FAPs and SCs were isolated from the suspension by FACS (Aria II, BD Biosciences) using anti-CD31, CD45, Sca-1, PDGFR and VCAM1 antibodies. FAPs were identified as Sca1/PDGFR-positive and CD31-, CD45- and VCAM1-negative cells ([Uezumi et al., 2010]). SCs were identified as VCAM1-positive and CD31-, CD45-, Sca-1 and PDGFR-negative cells ([Liu et al., 2015]).
as §2, §3, §4

SCs [4] = assay: Cell viability assay (cell counting kit-8) of senescent and non-senescent SCs treated with inhibitors; assay type: cell-based, mouse; details: for viability of senescent versus non-senescent SCs: Doxo-induced senescence, viability on day 5
Method: as §1, §5, §6, §2, §3, §4

senescent cells = assay: Senescent cell burden in mice treated with Doxo or Doxo + ABT; details: four-month-old male mice; Doxo 10 mg/kg; ABT 50 mg/kg/day after Doxo
SCs [5] = assay: Single-cell RNA sequencing of SCs from skeletal muscle of mice treated with PBS, Doxo or Doxo + ABT (differential gene expression); details: four-month-old male mice; Doxo 10 mg/kg i.p.; ABT 50 mg/kg/day by gavage, 2 cycles of 5 days
FAPs [6] = assay: Single-cell RNA sequencing of FAPs from skeletal muscle of mice treated with PBS, Doxo or Doxo + ABT (differential gene expression); details: for senescent FAPs in mouse skeletal muscle (scRNA seq): four-month-old male mice, Doxo 10 mg/kg i.p., ABT 50 mg/kg/day by gavage, 2 cycles of 5 days
[7] = Body weight and gastrocnemius muscle weight in Doxo-treated mice; assay type: in vivo, mouse; details: 4 mg/kg Doxo i.p., 5 injections, versus PBS
Method: (§7) Figure 8 25HC induces senolysis in vivo in Doxo-treated mice (A) Timeline of 25HC treatment in Doxo-treated mice. Mice were given 4 mg/kg Doxo or PBS for 5 daily injections[A1], then injected with 25HC or vehicle for 7 consecutive days. (B) Mass of gastrocnemius muscles. Muscle weight was normalized to body weight. (C) Cdkn2a and Cryab mRNA levels in gastrocnemius (Gastroc) and soleus (Sol) muscles. RNA was collected 28–30 d after the first treatment with Doxo. mRNA levels were quantified by qRT-PCR, and normalized to actin mRNA levels. The average value of PBS-vehicle was set at 1. (D) 15-d-PGJ2 analysis in urine. Urine was collected at 24 h after the first treatment with 25HC or HbCD. p values versus PBS-Veh or Doxo-Veh are obtained using Tukey's multiple comparisons test. ∗p < 0.05, ∗∗p < 0.01, p < 0.001, and ∗∗∗∗p < 0.0001.
Male C57BL/6J mice (3–4 months old) were purchased from the Jackson Laboratory. We performed five i.p. injections with 4 mg/kg of Doxo (Tocris Bioscience, Product# 2252) for each injection over 10 days (Figure 6A). Therefore, we injected a total of 20 mg/kg of Doxo/mouse over 10 days. […] Senescence markers p16^INK4a, p21^Cip1 and CRYAB expression was analyzed on gastrocnemius (Gastroc), soleus (So), tibialis anterior (TA), visceral fat (VF), kidney (Ki), liver (Li), lung (Lu), heart (He), and skin (Sk) samples by qRT-PCR.

FAPs [8] = assay: Senescence induction by Doxo in cultured primary FAPs (qRT-PCR of marker genes, growth rate); assay type: cell-based, mouse; details: 250 or 100 nM Doxo
[9] = tested on: Cdkn1a and Cryab mRNA in gastrocnemius and soleus muscles; assay: qRT-PCR of senescence markers and Cryab in muscles of Doxo-treated mice given 25HC; assay type: in vivo, mouse; details: mice, 4 mg/kg Doxo i.p., 5 injections, versus PBS
Method: as §7
Male C57BL/6J mice (3–4 months old) were purchased from the Jackson Laboratory. We performed five i.p. injections with 4 mg/kg of Doxo (Tocris Bioscience, Product# 2252) for each injection over 10 days (Figure 6A). Therefore, we injected a total of 20 mg/kg of Doxo/mouse over 10 days. We used EFT-PBS (EMD Millipore, Product# TMS-012-A) as a control. To test effects of 25HC (Tocris Bioscience, Product# 5741) on Doxo-treated mice, we prepared three experimental groups (n=15 for each group): 1) PBS+HβCD vehicle (22.5%), 2) Doxo (20 mg/kg)+vehicle (22.5%), 3) Doxo (20 mg/kg)+25HC (50 mg/kg) (Figure 6A); 25HC was dissolved in 22.5% 2-hydroxypropyl-beta-cyclodextrin (HβCD) (Tocris Bioscience, Product 0708). On the Day 5 after the last Doxo/PBS injections, the mice were treated with either 25HC (50 mg/kg) or vehicle by i.p. injections for 7 consecutive days (Figure 6A). 12 hr after the first 25HC or vehicle treatments, urine was collected (Figure 6A) from each group to test for the senolysis marker 15-d-PGJ2. […] Senescence markers p16^INK4a, p21^Cip1 and CRYAB expression was analyzed on gastrocnemius (Gastroc), soleus (So), tibialis anterior (TA), visceral fat (VF), kidney (Ki), liver (Li), lung (Lu), heart (He), and skin (Sk) samples by qRT-PCR. […]

SCs [10] = assay: Senescence induction by Doxo in cultured primary SCs (qRT-PCR of marker genes, growth rate); assay type: cell-based, mouse; details: 250 or 100 nM Doxo

With Brc1ccc(CCC2(Cn3ccnc3)OCCO2)cc1.Cl [OB24] the “viability of senescent versus non-senescent HSMMs” value [1] was “significantly decreased cell viability”, the “senolysis in mDF cells” value [2] was “ineffective” and the “viability of senescent versus non-senescent FAPs” value (FAPs [3]) was “slightly but significantly decreased the viability of FAPs”. For the same compound, the IC50 (FAPs [3]; 7 days in culture) was 261 µM and the “viability of senescent versus non-senescent SCs” value (SCs [4]) was “no difference in killing”.

In the case of CC1(C)CCC(c2ccc(Cl)cc2)=C(CN2CCN(c3ccc(C(=O)NS(=O)(=O)c4ccc(N[C@H](CCN5CCOCC5)CSc5ccccc5)c(S(=O)(=O)C(F)(F)F)c4)cc3)CC2)C1 [ABT263], the IC50 ([1]; 72 h, 3 days in culture) is reported as 15.2 µM, the IC50 ([1]; 168 h, 7 days in culture) is reported as 9 µM and the “burden of senescent cells in mice” value (senescent cells) is reported as “reduced burden of senescent cells”. The “senescent SCs in mouse skeletal muscle (scRNA seq)” value (SCs [5]) was “reduces the fraction”, the IC50 (FAPs [3]; Mus musculus, 72 h, 3 days in culture) was 14.7 µM and the IC50 (FAPs [3]; Mus musculus, 168 h, 7 days in culture) was 7.5 µM. For the same compound, the IC50 (SCs [4]; Mus musculus, 168 h, SCs, 7 days in culture) was 14.1 µM, the “senescent FAPs in mouse skeletal muscle (scRNA seq)” value (FAPs [6]) was “reduces the fraction” and the “avg_logFC of gene Capza2” value (FAPs [6]; sheet abt_down, gene Capza2, cluster c7, scRNA-seq differential expression) was -0.2501. The “avg_logFC of gene Coq10b” value (FAPs [6]; sheet abt_down, gene Coq10b, cluster c7, scRNA-seq differential expression) was -0.25, the “avg_logFC of gene Hes1” value (FAPs [6]; sheet abt_down, gene Hes1, cluster c1, scRNA-seq differential expression) was -0.2504 and the “avg_logFC of gene Pds5b” value (FAPs [6]; sheet abt_down, gene Pds5b, cluster c9, scRNA-seq differential expression) was -0.2501. For the same compound, the “avg_logFC of gene Qpct” value (FAPs [6]; sheet abt_down, gene Qpct, cluster c3, scRNA-seq differential expression) was -0.2504, the “avg_logFC of gene Creld2” value (FAPs [6]; sheet abt_up, gene Creld2, cluster c4, scRNA-seq differential expression) was 0.8182 and the “avg_logFC of gene Cxcl14” value (FAPs [6]; sheet abt_up, gene Cxcl14, cluster c5, scRNA-seq differential expression) was 0.8906. The “avg_logFC of gene Myl9” value (FAPs [6]; sheet abt_up, gene Myl9, cluster c9, scRNA-seq differential expression) was 0.9071, the “avg_logFC of gene Plac8” value (FAPs [6]; sheet abt_up, gene Plac8, cluster c3, scRNA-seq differential expression) was 0.7972 and the “avg_logFC of gene Tpm2” value (FAPs [6]; sheet abt_up, gene Tpm2, cluster c9, scRNA-seq differential expression) was 1.1381.

With COc1cccc2c1C(=O)c1c(O)c3c(c(O)c1C2=O)C[C@@](O)(C(=O)CO)C[C@@H]3O[C@H]1C[C@H](N)[C@H](O)[C@H](C)O1 [Doxo, Doxorubicin] the body weight [7] was “significantly decreased”, the “gastrocnemius muscle weight normalized to body weight” value [7] was “no difference” and the “senescence induction in cultured FAPs” value (FAPs [8]) was “induced senescence”. The “Cdkn1A mRNA in gastrocnemius and soleus muscles” value [9] was “significantly increased”, the “burden of senescent cells in mice” value (senescent cells) was “induced senescence” and the “senescence induction in cultured SCs” value (SCs [10]) was “induced senescence”. For the same compound, the “senescent SCs in mouse skeletal muscle (scRNA seq)” value (SCs [5]) was “induces senescence” and the “senescent FAPs in mouse skeletal muscle (scRNA seq)” value (FAPs [6]) was “induces senescence”.

For O=C(CC(c1ccccc1)c1ccccc1)Cn1ccnc1 [QC-308], the “viability of senescent versus non-senescent HSMMs” value [1] was “significantly decreased cell viability”, the “senolysis in mDF cells” value [2] was “ineffective” and the “viability of senescent versus non-senescent FAPs” value (FAPs [3]) was “slightly but significantly decreased the viability of FAPs”. The “viability of senescent versus non-senescent SCs” value (SCs [4]) was “no difference in killing”.
